{"source": "patent US20250145665A1", "about": "“MACROCYCLIC PEPTIDES USEFUL AS MODULATORS OF TNF ALPHA” (Bristol-Myers Squibb Company, priority 2023, published 2025)", "note": "Starred links: 1 amine or outer side, 2 acyl side, 3 side chain; linkers in the order of their positions; H or OH if unused. Positions of bridges follow the written chain, without caps; N, C: chain ends. Non-standard residues stand in square brackets, D forms with d. Residues, ends and D or L forms follow the SMILES beside them. *: point of attachment. Bip(4'-NHCO-C6H4-3-CH2COOH) = N[C@@H](Cc1ccc(-c2ccc(NC(=O)c3cccc(CC(=O)O)c3)cc2)cc1)C(=O)O; Bip(4'-NHCO-C6H4-4-CH2COOH) = N[C@@H](Cc1ccc(-c2ccc(NC(=O)c3ccc(CC(=O)O)cc3)cc2)cc1)C(=O)O; X43 = O=C(O)[C@@H]1CCC[C@H](C(=O)Nc2ccc(-c3ccc(C[C@H](N[*:1])C(=O)[*:2])cc3)cc2)C1; X34 = Cc1cc(C(=O)O)cc(C(=O)Nc2ccc(-c3ccc(C[C@H](N[*:1])C(=O)[*:2])cc3)cc2)c1; X52 = Cc1c(C(=O)O)cccc1C(=O)Nc1ccc(-c2ccc(C[C@H](N[*:1])C(=O)[*:2])cc2)cc1; X5 = Cn1nc(C(=O)Nc2ccc(-c3ccc(C[C@H](N[*:1])C(=O)[*:2])cc3)cc2)c2ccccc21; Bip(4'-NH) = O=C([C@H](Cc1ccc(-c2ccc(N[*:3])cc2)cc1)N[*:1])[*:2]; dArg(ω-Bn(3-CH2OH)) = N=C(NCCC[C@@H](N)C(=O)O)NCc1cccc(CO)c1; Ala(morpholin-4-yl) = N[C@@H](CN1CCOCC1)C(=O)O; Benzoyl(3-OCH2COOH) = O=C(O)COc1cccc(C(=O)*)c1; Bip = N[C@@H](Cc1ccc(-c2ccccc2)cc1)C(=O)O; Cha = N[C@@H](CC1CCCCC1)C(=O)O; Sar = CNCC(=O)O", "data": [{"molecular_target": "TNFα (Homo sapiens, UniProt P01375)", "sequence (P01375 77-233 limits assumed)": "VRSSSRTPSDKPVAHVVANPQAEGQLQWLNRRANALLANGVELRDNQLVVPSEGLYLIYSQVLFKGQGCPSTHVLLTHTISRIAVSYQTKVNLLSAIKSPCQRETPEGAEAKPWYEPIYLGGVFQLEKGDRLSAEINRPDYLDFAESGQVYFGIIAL", "assay": "TNF-Induced HEK-Blue Assay", "format": "cell-based", "details": "HEK-Blue-CD40L cells, NF-kB-driven secreted alkaline phosphatase reporter; TNFα 0.5 ng/ml; 18 h; read-out: TNF induced HEK-Blue assay IC50 value", "units": {"IC50": "nM"}, "values": [{"smiles": "CC[C@H](C)[C@@H]1NC(=O)[C@@H](CCCNC(=N)N)NC(=O)[C@H](CC(=O)O)NC(=O)[C@H](Cc2cnc[nH]2)NC(=O)CN(C)C(=O)[C@H](Cc2ccc(-c3ccc(NC(=O)c4cccc(OCC(=O)O)c4)cc3)cc2)NC(=O)[C@H](Cc2ccc(-c3ccccc3)cc2)NC(=O)[C@H](CN2CCOCC2)NC(=O)CSC[C@@H](C(=O)NCC(N)=O)NC(=O)[C@H](CC(C)C)NC(=O)[C@H](Cc2cnc[nH]2)NC(=O)[C@H](C(C)C)NC(=O)[C@@H]2CCCN2C1=O", "note": "[Example 441] ({CH2CO}-[Ala(morpholin-4-yl)][Bip][Bip(4'-NH)](Benzoyl(3-OCH2COOH))[Sar]HD[dR]IPVHLCG-NH2; thioether N-13)", "IC50": "< 50"}, {"smiles": "CC[C@H](C)[C@@H]1NC(=O)[C@@H](CCCNC(=N)N)NC(=O)[C@H](CC(=O)O)NC(=O)[C@@H]2CCCN2C(=O)CN(C)C(=O)[C@H](Cc2ccc(-c3ccc(NC(=O)c4cccc(OCC(=O)O)c4)cc3)cc2)NC(=O)[C@H](Cc2ccc(-c3ccccc3)cc2)NC(=O)[C@H](CC2CCCCC2)NC(=O)CSC[C@@H](C(=O)NCC(N)=O)NC(=O)[C@H](CC(C)C)NC(=O)[C@H](Cc2cnc[nH]2)NC(=O)[C@H](C(C)C)NC(=O)[C@@H]2CCCN2C1=O", "note": "[Example 442] ({CH2CO}-[Cha][Bip][Bip(4'-NH)](Benzoyl(3-OCH2COOH))[Sar]PD[dR]IPVHLCG-NH2; thioether N-13)", "IC50": "50 to 200"}, {"smiles": "CC[C@H](C)[C@@H]1NC(=O)[C@@H](CCCNC(=N)N)NC(=O)[C@H](CC(=O)O)NC(=O)[C@H](Cc2cnc[nH]2)NC(=O)CN(C)C(=O)[C@H](Cc2ccc(-c3ccc(NC(=O)c4cc(C)cc(C(=O)O)c4)cc3)cc2)NC(=O)[C@H](Cc2ccc(-c3ccccc3)cc2)NC(=O)[C@H](CC2CCCCC2)NC(=O)CSC[C@@H](C(=O)NCC(N)=O)NC(=O)[C@H](CC(C)C)NC(=O)[C@H](Cc2cnc[nH]2)NC(=O)[C@H](C(C)C)NC(=O)[C@@H]2CCCN2C1=O", "note": "[Example 443] ({CH2CO}-[Cha][Bip][X34][Sar]HD[dR]IPVHLCG-NH2; thioether N-13)", "IC50": "< 50"}, {"smiles": "CC[C@H](C)[C@@H]1NC(=O)[C@@H](CCCNC(=N)N)NC(=O)[C@H](CC(=O)O)NC(=O)[C@H](Cc2cnc[nH]2)NC(=O)CN(C)C(=O)[C@H](Cc2ccc(-c3ccc(NC(=O)c4cccc(CC(=O)O)c4)cc3)cc2)NC(=O)[C@H](Cc2ccc(-c3ccccc3)cc2)NC(=O)[C@H](CC2CCCCC2)NC(=O)CSC[C@@H](C(=O)NCC(N)=O)NC(=O)[C@H](CC(C)C)NC(=O)[C@H](Cc2cnc[nH]2)NC(=O)[C@H](C(C)C)NC(=O)[C@@H]2CCCN2C1=O", "note": "[Example 444] ({CH2CO}-[Cha][Bip][Bip(4'-NHCO-C6H4-3-CH2COOH)][Sar]HD[dR]IPVHLCG-NH2; thioether N-13)", "IC50": "< 50"}, {"smiles": "CC[C@H](C)[C@@H]1NC(=O)[C@@H](CCCNC(=N)N)NC(=O)[C@H](CC(=O)O)NC(=O)[C@H](Cc2cnc[nH]2)NC(=O)CN(C)C(=O)[C@H](Cc2ccc(-c3ccc(NC(=O)c4ccc(CC(=O)O)cc4)cc3)cc2)NC(=O)[C@H](Cc2ccc(-c3ccccc3)cc2)NC(=O)[C@H](CC2CCCCC2)NC(=O)CSC[C@@H](C(=O)NCC(N)=O)NC(=O)[C@H](CC(C)C)NC(=O)[C@H](Cc2cnc[nH]2)NC(=O)[C@H](C(C)C)NC(=O)[C@@H]2CCCN2C1=O", "note": "[Example 445] ({CH2CO}-[Cha][Bip][Bip(4'-NHCO-C6H4-4-CH2COOH)][Sar]HD[dR]IPVHLCG-NH2; thioether N-13)", "IC50": "< 50"}, {"smiles": "CC[C@H](C)[C@@H]1NC(=O)[C@@H](CCCNC(=N)N)NC(=O)[C@H](CC(=O)O)NC(=O)[C@H](Cc2cnc[nH]2)NC(=O)CN(C)C(=O)[C@H](Cc2ccc(-c3ccc(NC(=O)[C@H]4CCC[C@@H](C(=O)O)C4)cc3)cc2)NC(=O)[C@H](Cc2ccc(-c3ccccc3)cc2)NC(=O)[C@H](CC2CCCCC2)NC(=O)CSC[C@@H](C(=O)NCC(N)=O)NC(=O)[C@H](CC(C)C)NC(=O)[C@H](Cc2cnc[nH]2)NC(=O)[C@H](C(C)C)NC(=O)[C@@H]2CCCN2C1=O", "note": "[Example 446] ({CH2CO}-[Cha][Bip][X43][Sar]HD[dR]IPVHLCG-NH2; thioether N-13)", "IC50": "50 to 200"}, {"smiles": "CC[C@H](C)[C@@H]1NC(=O)[C@@H](CCCNC(=N)N)NC(=O)[C@H](CC(=O)O)NC(=O)[C@H](Cc2cnc[nH]2)NC(=O)CN(C)C(=O)[C@H](Cc2ccc(-c3ccc(NC(=O)c4cccc(C(=O)O)c4C)cc3)cc2)NC(=O)[C@H](Cc2ccc(-c3ccccc3)cc2)NC(=O)[C@H](CC2CCCCC2)NC(=O)CSC[C@@H](C(=O)NCC(N)=O)NC(=O)[C@H](CC(C)C)NC(=O)[C@H](Cc2cnc[nH]2)NC(=O)[C@H](C(C)C)NC(=O)[C@@H]2CCCN2C1=O", "note": "[Example 447] ({CH2CO}-[Cha][Bip][X52][Sar]HD[dR]IPVHLCG-NH2; thioether N-13)", "IC50": "50 to 200"}, {"smiles": "CC(C)C[C@@H]1NC(=O)[C@H](CCCNC(=N)N)NC(=O)[C@H](C(C)C)NC(=O)[C@@H]2CCCN2C(=O)[C@H](C(C)C)NC(=O)[C@@H](CCCNC(=N)NCc2cccc(CO)c2)NC(=O)[C@H](CC(=O)O)NC(=O)[C@@H]2CCCN2C(=O)CN(C)C(=O)[C@H](Cc2ccc(-c3ccc(NC(=O)c4nn(C)c5ccccc45)cc3)cc2)NC(=O)[C@H](Cc2ccc(-c3ccccc3)cc2)NC(=O)[C@H](CN2CCOCC2)NC(=O)CSC[C@@H](C(=O)NCC(N)=O)NC1=O", "note": "[Example 448] ({CH2CO}-[Ala(morpholin-4-yl)][Bip][X5][Sar]PD[dArg(ω-Bn(3-CH2OH))]VPVRLCG-NH2; thioether N-13)", "IC50": "< 50"}]}]}
